In the experiment the test system is NCI-H1341 complex spheroids, percent test/control. Briefly: Anticancer human tumor NCI-H1341 cell line growth inhibition [AhR].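 For all read-outs here: spheroids exposed to agents for seven days before readout.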 Particulars: for viability, T/C: stronger effect = lower value. An outline of the steps:
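Complex tumor spheroids co-cultured with HUVEC and human MSC stroma; AhR antagonists tested in combination with standard-of-care and investigational agents. Top concentration at or near clinical Cmax (else 10 microM), half-log dilutions; growth expressed as percent test/control.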

These results are taken from PubChem BioAssay AID1919014 (Molecular Pharmacology Branch, DTP, NCI, 2023).

Several values for one entry are separate records, joined by “and”; a condition that tells them apart may be missing. Equal entries are not always repeated.

`O=C(C=Cn1cnc(-c2cc(C(F)(F)F)cc(C(F)(F)F)c2)n1)NNc1cnccn1` + Cc1cncc(-c2nc(NCCc3c[nH]c4ccccc34)c3ncn(C(C)C)c3n2)c1: the IC50 (in general, the concentration at which inhibition is half-maximal) reads like this: (curve of first compound, second compound 0.1 µM) 98.1 nM; (curve of first compound, second compound 0.316 µM) 56.8 nM; (curve of first compound, second compound 1 µM) 81.1 nM; (curve of first compound, second compound 3.16 µM) 44.4 nM; (curve of first compound, second compound 10 µM) under 9.49 nM. The viability, T/C (as a rule, the ratio of treated to control) runs as follows: (second compound 0.1 µM, first compound 0.00949 µM) 80.6%; (second compound 0.1 µM, first compound 0.03 µM) 77%; (second compound 0.1 µM, first compound 0.0949 µM) 51.1%; (second compound 0.1 µM, first compound 0.3 µM) 14.5%; (second compound 0.1 µM, first compound 0.949 µM) 7.39%; (second compound 0.1 µM, first compound 3 µM) 6.28%. The viability, T/C (second compound 0.316 µM, first compound 0.00949 µM) was 66.5%; the viability, T/C (second compound 0.316 µM, first compound 0.03 µM) was 65.7%; the viability, T/C (second compound 0.316 µM, first compound 0.0949 µM) is 38%; the viability, T/C (second compound 0.316 µM, first compound 0.3 µM) is 13.4%; the viability, T/C (second compound 0.316 µM, first compound 0.949 µM) was 7.92%; the viability, T/C (second compound 0.316 µM, first compound 3 µM) is 4.63%. In addition, the viability, T/C (second compound 1 µM, first compound 0.00949 µM) was 76.8%; the viability, T/C (second compound 1 µM, first compound 0.03 µM) was 78.5%; the viability, T/C (second compound 1 µM, first compound 0.0949 µM) is 45.1%; the viability, T/C (second compound 1 µM, first compound 0.3 µM) is 12.7%; the viability, T/C (second compound 1 µM, first compound 0.949 µM) is 7.39%; the viability, T/C (second compound 1 µM, first compound 3 µM) is 4.92%. Besides, the viability, T/C is 70.2% (second compound 3.16 µM, first compound 0.00949 µM); 60.4% (second compound 3.16 µM, first compound 0.03 µM); 30.8% (second compound 3.16 µM, first compound 0.0949 µM); 13.6% (second compound 3.16 µM, first compound 0.3 µM); 7.86% (second compound 3.16 µM, first compound 0.949 µM); 4.46% (second compound 3.16 µM, first compound 3 µM). For the same compound, the viability, T/C is 35.3% (second compound 10 µM, first compound 0.00949 µM); 34.8% (second compound 10 µM, first compound 0.03 µM); 17.4% (second compound 10 µM, first compound 0.0949 µM); 9.23% (second compound 10 µM, first compound 0.3 µM); 5.77% (second compound 10 µM, first compound 0.949 µM); 3.55% (second compound 10 µM, first compound 3 µM).

With `Nc1ccn(C2OC(CO)C(O)C2(F)F)c(=O)n1` (configuration not stated), the viability, T/C was 27.5% and 32.2% and 32.9% (compound 0.0316 µM); 26.6% and 28.1% and 35.2% (compound 0.1 µM); 24.2% and 25.8% and 36.1% (compound 0.316 µM); 24.8% and 27.9% and 31.6% (compound 1 µM); 23.1% and 24.4% and 33.5% (compound 3.16 µM); 21.6% and 21.2% and 32.3% (compound 10 µM). Under “curve of compound”, the concentration for half-maximal inhibition (IC50) is under 31.6 nM.
